Experimental data published in paper PMC7690608, “Combination Therapy of High-Dose Rabeprazole Plus Metronomic Capecitabine in Advanced Gastro-Intestinal Cancer: A Randomized Phase II Trial” (Cancers, 2020).
Read-outs that look alike come from different tables or passages of the source.

Columns and labels:
[1] = set-up: species or system patients; conditions: in vivo
Procedure: This is a randomized phase II study designed to detect the advantage of adding rabeprazole to mCAP as palliative treatment for patients with metastatic GI cancer, as previously described. Eligible patients were randomly assigned 1:1 to capecitabine, 1500 mg/daily, continuously with or without rabeprazole 1.5 mg/kg bid, three days a week. The randomization was computer generated by a statistician not involved in data collection, who was called by phone at the time of assignment. The protocol was not interrupted until progression of disease, unacceptable toxicity or death occurrence. This study was designed with the primary endpoint of 3-months progression-free survival (PFS) rate. […] Safety was evaluated by considering overall incidence and severity of adverse events (AEs) as well as the seriousness and drug-relatedness of each event (CTCAE v.4.03). […] Plasma concentrations of capecitabine and its metabolites, 5′-deoxy-5′-fluorouridine (5′-DFUR) and 5- fluorouracil (5-FU), were evaluated in order to assess the potential interaction between capecitabine and rabeprazole. […] Plasma samples, calibration standard samples and quality-control (QC) samples were analyzed using a high-performance liquid chromatography (HPLC) tandem mass spectrometry (LC/MS-MS) analytical method. […]

[2] = test system: metastatic gastrointestinal (GI) cancer; test: Randomized phase II trial: efficacy (3-months PFS, PFS, clinical benefit, OS; RECIST 1.1); format: in vivo, patients
Text: In addition, patients had to be 18 years of age or older, to have adequate bone-marrow, liver, and renal function and to have an Eastern Cooperative Oncology Group (ECOG) performance status ≤2. Meanwhile, the presence of one of the following criteria excluded patients’ participation to the study protocol: GI tumors that can be treated with standard treatments, cardiovascular or CNS disease, previously untreated CNS metastases, pregnant or breast-feeding patients, organ dysfunctions that usually hinder the use of cytotoxic drugs, and/or substance abuse and any other psychological condition that may interfere with the evaluation of study results. All patients were randomized and treated at the Oncology Unit of Sant’Andrea University Hospital, Rome. Every cancer patient is commonly managed at our Institution by a multidisciplinary team, who provides for the starting and the following clinical evaluations.
This is a randomized phase II study designed to detect the advantage of adding rabeprazole to mCAP as palliative treatment for patients with metastatic GI cancer, as previously described. Eligible patients were randomly assigned 1:1 to capecitabine, 1500 mg/daily, continuously with or without rabeprazole 1.5 mg/kg bid, three days a week. The randomization was computer generated by a statistician not involved in data collection, who was called by phone at the time of assignment. The protocol was not interrupted until progression of disease, unacceptable toxicity or death occurrence. This study was designed with the primary endpoint of 3-months progression-free survival (PFS) rate. PFS was defined as the length of time from the first dose of study drug to the date of the first documented disease progression according to the Response Evaluation Criteria in Solid Tumors (RECIST), version 1.1, or death for any reason, with censoring at the date of the last contact for alive patients. Secondary endpoints included the evaluation of clinical benefit (CB), which reflects the proportion of patients with complete response (CR), partial response (PR) and stable disease (SD) and overall survival (OS). The crossover between treatment groups was not allowed before the final analysis of the primary end point. Safety was evaluated by considering overall incidence and severity of adverse events (AEs) as well as the seriousness and drug-relatedness of each event (CTCAE v.4.03). AEs with an onset during treatment, or within 28 days after the last dose of the study drug, were considered as having occurred during treatment. We grouped anemia, neutropenia, and thrombocytopenia in hematological toxicity; diarrhea, nausea, and vomiting in gastrointestinal toxicity. In the two protocol arms, plasma concentrations of capecitabine and its metabolites were determined at 2 h from the assumption of two tablet of capecitabine (1000 mg), corresponding to the tmax of the drug. Plasma concentrations of capecitabine and its metabolites, 5′-deoxy-5′-fluorouridine (5′-DFUR) and 5- fluorouracil (5-FU), were evaluated in order to assess the potential interaction between capecitabine and rabeprazole. Blood samples (7 mL) were collected in vacutainers containing ethylenediaminetetraacetic acid (EDTA) as anticoagulant, then centrifuged and the plasma samples were stored at −20 °C until analysis. […] Plasma samples, calibration standard samples and quality-control (QC) samples were analyzed using a high-performance liquid chromatography (HPLC) tandem mass spectrometry (LC/MS-MS) analytical method. […]

[3] = test system: patients with metastatic GI cancer; test: Randomized phase II trial: safety, adverse events (CTCAE v.4.03); conditions: in vivo
Procedure: This is a randomized phase II study designed to detect the advantage of adding rabeprazole to mCAP as palliative treatment for patients with metastatic GI cancer, as previously described. Eligible patients were randomly assigned 1:1 to capecitabine, 1500 mg/daily, continuously with or without rabeprazole 1.5 mg/kg bid, three days a week. The randomization was computer generated by a statistician not involved in data collection, who was called by phone at the time of assignment. The protocol was not interrupted until progression of disease, unacceptable toxicity or death occurrence. This study was designed with the primary endpoint of 3-months progression-free survival (PFS) rate. PFS was defined as the length of time from the first dose of study drug to the date of the first documented disease progression according to the Response Evaluation Criteria in Solid Tumors (RECIST), version 1.1, or death for any reason, with censoring at the date of the last contact for alive patients. Secondary endpoints included the evaluation of clinical benefit (CB), which reflects the proportion of patients with complete response (CR), partial response (PR) and stable disease (SD) and overall survival (OS). The crossover between treatment groups was not allowed before the final analysis of the primary end point. Safety was evaluated by considering overall incidence and severity of adverse events (AEs) as well as the seriousness and drug-relatedness of each event (CTCAE v.4.03). AEs with an onset during treatment, or within 28 days after the last dose of the study drug, were considered as having occurred during treatment. We grouped anemia, neutropenia, and thrombocytopenia in hematological toxicity; diarrhea, nausea, and vomiting in gastrointestinal toxicity. In the two protocol arms, plasma concentrations of capecitabine and its metabolites were determined at 2 h from the assumption of two tablet of capecitabine (1000 mg), corresponding to the tmax of the drug. Plasma concentrations of capecitabine and its metabolites, 5′-deoxy-5′-fluorouridine (5′-DFUR) and 5- fluorouracil (5-FU), were evaluated in order to assess the potential interaction between capecitabine and rabeprazole. Blood samples (7 mL) were collected in vacutainers containing ethylenediaminetetraacetic acid (EDTA) as anticoagulant, then centrifuged and the plasma samples were stored at −20 °C until analysis. Plasma samples were collected at the start of the study, after 4 and 8 weeks of treatment. Plasma samples, calibration standard samples and quality-control (QC) samples were analyzed using a high-performance liquid chromatography (HPLC) tandem mass spectrometry (LC/MS-MS) analytical method. Plasma concentrations were reported in µg/mL (mean values and standard deviation (SD)).
The study was designed to have 90% power to detect a hazard ratio for the 3-months PFS of 0.60 (a 40% reduction in risk) in the mCAP-rabeprazole group as compared with the mCAP group, with a one-sided type I error rate of 0.05. Given the treatment assignment ratio of 1:1, we calculated that 66 patients had to be enrolled in the study, and at least 60 events (progression disease) would have been required for the primary analysis. For PFS and OS, the stratified log-rank test was used independently at the 2-sided, 0.05 level of significance, and Kaplan–Meier estimates performed for the graphic representation of both findings. An exact logistic regression model was used to test for a difference in CB between treatments, with the model adjusted by the same factors used to stratify the primary analysis of PFS. Adverse events and laboratory abnormalities were summarized for all patients who received at least one dose of study drug. The χ^2–test and t-test for unpaired data were applied to compare frequencies and means, respectively. SPSS statistical software, Version 24 (SPSS Inc. Chicago, IL, USA) was used.

[4] = test system: early stage colorectal cancer; set-up: method as in PMID 26803708; conditions: cited from earlier work
tumor pH = test system: tumor pH; set-up: method as in PMID 19876915; conditions: in vivo experiments; tumor pH shifts toward neutrality after treatment; cited from earlier work

Row | SMILES | plasma values in the pre-dose analysis [1] | median OS ([2]; Kaplan–Meier) | median PFS ([2]; Kaplan–Meier) [months] | 3-year OS rate ([2]; human, in vivo) [%] | patients who reported a clinical benefit (CB: CR+PR+SD) ([2]; human, in vivo) [%] | patients who experienced a progression of the disease at the 3-months evaluation (primary end-point) ([2]; intention-to-treat, mCAP 1500 mg/daily with or without rabeprazole 1.5 mg/kg bid three days a week) [%] | Gastrointestinal G1, patients ([3]; human) [%] | Gastrointestinal G2, patients ([3]; human) [%] | Hand-foot syndrome G1, patients ([3]; human) [%] | Hand-foot syndrome G2, patients ([3]; human) [%] | Hematological toxicity G1, patients ([3]; human) [%] | Hematological toxicity G2, patients ([3]; human) [%] | Nausea ([3]; human) [n.] | Neutropenia ([3]; human) [n.] | adverse events of any grade, patients ([3]; human) [%] | severe adverse events [3] | Five-year recurrence-free survival ([4]; adjuvant capecitabine with concurrent PPIs consumption) [%] | Five-year recurrence-free survival ([4]; adjuvant capecitabine without concurrent PPIs consumption) [%] | HR for five-year recurrence-free survival ([4]; with vs. without concurrent PPIs, p = 0.03) | time for tumor pH to return to acidity after treatment discontinuation (tumor pH) [h]
1 | O=c1[nH]cc(F)c(=O)[nH]1 [5-FU, 5-fluorouracil] | below zero |  |  |  |  |  |  |  |  |  |  |  |  |  |  |  |  |  |  | 
2 | CCCCCOC(=O)Nc1nc(=O)n([C@@H]2O[C@H](C)[C@@H](O)[C@H]2O)cc1F [mCAP, capecitabine] | below zero | 6.0 (95%CI 4.0–7.9) months | 3.0 | 12 | 31 | 57 | 14 | 9 | 3 | 11 | 6 | 6 | 1 | 0 | 29 | no severe adverse event | 74 | 83 | 1.89 | 
3 | COc1ccc2nc([S@@+]([O-])Cc3ncc(C)c(OC)c3C)[nH]c2c1 [esomeprazole] |  |  |  |  |  |  |  |  |  |  |  |  |  |  |  |  |  |  |  | ≤ 48
